The NIST ThermoML archive (doi:10.1021/acs.jced.6b00128)
± gives the expanded uncertainty stated by the source.

Conditions: Liquid, Falling or rolling sphere viscometry

CCCCC(CC)COC(=O)c1ccc(C(=O)OCC(CC)CCCC)c(C(=O)OCC(CC)CCCC)c1 (stereo not drawn) [tris(2-ethylhexyl) trimellitate]
Conditions	viscosity [mPa·s]
315.1 K, 8710 kPa	92.64 ± 3.6
315.1 K, 23090 kPa	125 ± 5.5
315.1 K, 36550 kPa	163.5 ± 8.2
315.1 K, 69620 kPa	301.3 ± 20
315.1 K, 71420 kPa	310.8 ± 20
315.1 K, 104200 kPa	540.6 ± 44
315.1 K, 138800 kPa	934 ± 93
347.1 K, 9180 kPa	22.72 ± 0.97
347.1 K, 22490 kPa	28.88 ± 1.3
347.1 K, 36420 kPa	36.54 ± 1.7
347.1 K, 70160 kPa	62.43 ± 3
347.1 K, 70370 kPa	62.32 ± 3
347.1 K, 104100 kPa	101.1 ± 5.5
347.1 K, 138500 kPa	159.1 ± 10
347.1 K, 173500 kPa	244.9 ± 14
347.1 K, 219900 kPa	420.8 ± 31
387.5 K, 11780 kPa	7.262 ± 0.27
387.5 K, 22080 kPa	8.542 ± 0.32
387.5 K, 36110 kPa	10.48 ± 0.4
387.5 K, 70650 kPa	16.6 ± 0.66
387.5 K, 72750 kPa	17.21 ± 0.67
387.5 K, 104700 kPa	25.32 ± 1
387.5 K, 140100 kPa	37.04 ± 1.6
387.5 K, 173400 kPa	51.68 ± 2.3
387.5 K, 215400 kPa	77.27 ± 3.1
428.6 K, 9400 kPa	3.143 ± 0.11
428.6 K, 21670 kPa	3.632 ± 0.12
428.6 K, 36940 kPa	4.46 ± 0.15
428.6 K, 70470 kPa	6.643 ± 0.23
428.6 K, 105400 kPa	9.7 ± 0.33
428.6 K, 139500 kPa	13.2 ± 0.46
428.6 K, 172300 kPa	17.63 ± 0.62
428.6 K, 203200 kPa	22.51 ± 0.72
428.6 K, 237600 kPa	29.74 ± 0.96
477.8 K, 11620 kPa	1.649 ± 0.053
477.8 K, 23680 kPa	1.916 ± 0.062
477.8 K, 37690 kPa	2.232 ± 0.072
477.8 K, 37760 kPa	2.235 ± 0.072
477.8 K, 70980 kPa	3.227 ± 0.11
477.8 K, 105500 kPa	4.336 ± 0.14
477.8 K, 106000 kPa	4.336 ± 0.14
477.8 K, 139300 kPa	5.743 ± 0.19
477.8 K, 174200 kPa	7.352 ± 0.24
477.8 K, 196800 kPa	8.536 ± 0.29
477.8 K, 219300 kPa	10.02 ± 0.32
477.8 K, 240800 kPa	11.62 ± 0.39
527.4 K, 10410 kPa	1.015 ± 0.033
527.4 K, 23110 kPa	1.161 ± 0.037
527.4 K, 36430 kPa	1.333 ± 0.043
527.4 K, 69910 kPa	1.79 ± 0.058
527.4 K, 105200 kPa	2.466 ± 0.08
527.4 K, 105700 kPa	2.469 ± 0.08
527.4 K, 139000 kPa	3.097 ± 0.1
527.4 K, 172900 kPa	3.835 ± 0.13
527.4 K, 200700 kPa	4.578 ± 0.15
527.4 K, 201600 kPa	4.601 ± 0.15
527.4 K, 223700 kPa	5.224 ± 0.17
527.4 K, 241600 kPa	5.761 ± 0.19
